The values that follow come from patent publication US9718835B2 (China Medical University Hospital, priority 2013, dated 2017).

The structures appear in SMILES notation.

Series [1] has as its system KB (epidermoid carcinoma of the nasopharynx). The series can be described thus: Sulforhodamine B cytotoxicity assay, KB. It is filed as cell-based, human. The note with it: Table 1; 72 h; average ± SD; read-out: IC50 KB. The procedure: The 12 novel 1-derivatives 9a-l were evaluated for in vitro antiproliferative activity against four human tumor cell lines, KB (nasopharyngeal), A-549 (lung), DU-145 (prostate), and KBvin (MDR KB subline), by using a sulforhodamine B colorimetric assay with triplicate experiments.^30 Compounds 1 and 3 were used as controls.
The human tumor cell lines used in this manuscript were A-549 (lung carcinoma), MDA-MB-231 (triple-negative breast cancer), DU-145 (hormone-insensitive prostate cancer), KB (originally isolated from epidermoid carcinoma of the nasopharynx), KBvin (vincristine-resistant KB subline), and HCT116 (colorectal adenocarcinoma). These cell lines were obtained from the Lineberger Comprehensive Cancer Center (UNC-CH) or from ATCC (Manassas, Va.), except KBvin, which was a generous gift of Professor Y.-C. Cheng (Yale University). All cell lines were maintained and assayed in RPMI-1640 medium containing 2 mM L-glutamine and 25 mM HEPES (HyClone), supplemented with 10% heat-inactivated fetal bovine serum (HyClone), 100 μg/mL streptomycin, 100 IU/mL penicillin, and 0.25 μg/mL amphotericin B (Cellgro) in a humidified atmosphere containing 5% CO2 in air. Compound stock solutions were prepared at 10 mM in DMSO and diluted with culture medium with the final DMSO concentration ≦0.01% (v/v), a concentration without effect on cell growth. The 4-6×10^3 cells/well were cultured for 72 h with various concentrations of test compounds in 96-well plate at 37° C. […] Each assay was performed in triplicate with duplicated samples.
Background: Sulforhodamine B stains cellular protein and so reports cell mass.

Series [2] deals with MDA-MB-468 (Breast cancer). The series can be described thus: cells. It is filed as cell-based, human. To be noted: Table 6; read-out: In vitro cytotoxicity MDA-MB-468 (Breast cancer).
In a further series the test system is ATM. The series can be described thus: Western blot analysis of ATM phosphorylation (DNA damage response). To be noted: after 0.5 h treatment. It is filed as cell-based, human. The procedure:
Activation of ATM kinase was confirmed by detecting the phosphorylation of downstream effectors, Chk1, Chk2, and histone H2AX.
Cells were harvested in PBS containing proteinase inhibitors and phosphatase inhibitors, and sonicated. Whole cell lysates were separated by SDS-PAGE and transferred to Immobilon P membrane (EMD Millipore). The membrane was incubated with primary antibody followed by labeling with horseradish peroxidase (HRP)-conjugated secondary antibody (EMD Millipore). Chemilluminence substrate kit (EMD Millipore) was used for detection of membrane-bound HRP, and visualized by the Luminsence image analyzer, LAS4000 (Fuji Photo Film Co., Japan).
Antibodies to caspase-3, caspase-8, caspase-9, PARP, phospho-ATM (Ser1981), ATM, phospho-ATR (Ser428), phospho-Chk1 (Ser345), phospho-Chk2 (Thr68), Chk2, phospho-H2AX (Ser139), and phospho-p53 (Ser15) were purchased from Cell Signaling Technology. Antibodies against ATM, ATR, Chk1, and PUMA were from Santa Cruz Biotechnology. Antibodies against Topo I, Topo IIα, Topo IIβ, p53, FADD, BAX, Bcl-xL, and Bcl-2 were from BD Biosciences. Antibody to β-actin was purchased from EMD Millipore.

The test system of series [3] is human colorectal adenocarcinoma HCT116 xenograft. The series can be described thus: Xenograft model antitumor assay. The series is classed as in vivo, nu/nu mice. To be noted: for mice showing complete regression: i.v. 7 days then i.p., n=8, 31-day study. The procedure: Xenograft model antitumor assay using human colorectal adenocarcinoma cell line HCT116 was performed according to the regimen in Table 2. The 31-day study utilized four groups of mice (n=8) bearing established HCT116 xenograft with mean volumes of approximately 200 mm^3 on day one. The tumor growth and animal body weight change for each treatment group were measured three times per week (FIGS. 2 and 3). Compound 9a was administered intravenously (i.v.) for 7 days and then intraperitoneally (i.p.) at 5 and 10 mg/kg once every day (QD) to the end.
Five- to six-week-old female nu/nu mice (National Laboratory Animal Center, Taiwan) were inoculated subcutaneously with 2×10^6 human colorectal adenocarcinoma HCT116 cells in flank. When the grafted tumor volume reached the average volume of 200 mm^3, mice were randomly divided into four groups (n=8). Vehicle control and compound 9a at 5 or 10 mg/kg were administered i.v. once a day (QD) for 7 days and then i.p. once a day to the end. As an experimental control group, 100 mg/kg of compound 3 was administered i.v. once a week (QWK) to the end. The length (L) and width (W) of graft was measured every 3 to 4 days to the end, and the tumor volume was calculated as LW^2/2. Results were evaluated statistically by Student's t-test. This study was approved by the Institutional Animal Care and Use Committee (IACUC) of the National Taiwan University (Taipei, Taiwan), and was performed according to the institutional guidelines.

Series [4] is classed as in vivo, BALB/c mice. The procedure: Acute toxicity of 9a in mouse was evaluated pathologically. Sixty 8-week-old male BALB/c mice were randomized into six groups (n=10) to receive 0 (vehicle only), 30, 100, 200, or 300 mg/kg of 9a i.p. on day zero. One group was kept without treatment as a normal control. […] Histopathological evaluations included 1) glycogen deposition, inflammatory cell infiltration, and focal necrosis in liver, 2) regeneration of renal tubule, inflammatory cell infiltration, and chronic progressive nephropathy in kidney, and 3) inflammatory cell infiltration and adenoma in lung. […] Thus, the animals apparently tolerated treatment with 300 mg/kg of 9a, portending an acceptable safety profile.
Sixty 8-week-old male BALB/c mice (National Laboratory Animal Center, Taipei, Taiwan) were used to evaluate single-dose toxicity. Mice were randomly divided into six groups (n=10) and received a single i.p. injection of 9a at 0 (vehicle), 30, 100, 200 or 300 mg/kg on day 0. One group was untreated as normal control. Body weight was measured every three days for fifteen days. On the end of experimental period, all animals were euthanized by CO2 and tissues from liver, lung, kidney and spleen were weighted (data not shown). Tissues were fixed with 10% formalin and embedded in paraffin. Sections 3-5 μm in thickness were prepared for histopathological examination. Hematoxylin and eosin (H&E) stained paraffin sections were evaluated histopathologically according to the guideline described by Shackelford et al.^36 and graded the symptomatic lesions. […] Statistically significant results (P<0.05) were is shown. This study was approved by the Institutional Animal Care and Use Committee (IACUC) of China Medical University (Taichung, Taiwan), and was performed according to the institutional guidelines.

For the compound `CC[C@@]1(OC(=O)CNC(Cc2ccc(OC)cc2)=NS(=O)(=O)c2ccc(C)cc2)C(=O)OCc2c1cc1n(c2=O)Cc2cc3ccccc3nc2-1` [Compound 9a], the IC50 in series [1] stood at 140 ± 18 nM; in series [2], 22.8 ± 2.97 nM. Further, the “ATM phosphorylation at Ser1981” value with ATM was “underwent phosphorylation at Ser1981 residue”. In addition, the “mice showing complete regression” value in series [3] (5 mg/kg QD) is listed as “Two of eight”; in series [3] (10 mg/kg QD), “three of eight”. In addition, the “antitumor activity in vivo (tumor growth)” value in series [3] (5 mg/kg QD, P<0.01, Student's t-test) is reported as “significant antitumor activity”; in series [3] (10 mg/kg QD, P<0.001, Student's t-test) it was “significant antitumor activity”. In addition, the “animal body weight change” value in series [3] (5 and 10 mg/kg QD, xenograft mice) is recorded as “no significant changes in body weight”. Also, in series [4] (300 mg/kg i.p.), the overt toxicity entry was “no overt toxicity”. The “acute toxicity (anaphylactic, allergic responses, body weight loss)” value in series [4] (single i.p. 30, 100, 200 or 300 mg/kg, male BALB/c mice) is “no anaphylactic responses, allergic reactions, or significant body weight loss”. For the same compound, in series [4] (single i.p. up to 300 mg/kg, male BALB/c mice), the “histopathological evaluation of liver, spleen, kidney and lung” value is recorded as “no adverse effects”.
